# Laboratory results from paper PMC5988656, “Phase I studies of AZD1208, a proviral integration Moloney virus kinase inhibitor in solid and haematological cancers” (British Journal of Cancer, 2018).
# Assay: AML dose-escalation study: pharmacokinetics (plasma, urine)
# Type: in vivo, human
# Procedure: The schedules for collection of blood and urine samples for PK analyses in each cohort in both studies are described in Supplementary Table 1. When necessary for clinical response assessment in the AML study, a bone marrow sample for PK analysis was collected at Cycle 1, Day 28.
# The concentration of AZD1208 in plasma and urine was determined by Covance, on behalf of Clinical Bioanalysis Alliance at AstraZeneca R&D, using a bioanalytical method. A volume of 0.05 ml of K2EDTA human plasma sample was extracted by liquid–liquid extraction using 0.7 ml of methyl tert-butyl ether. Approximately 100 µl of the supernatant was transferred, evaporated to dryness and reconstituted with 350 µl of 1:1 methanol:water, and a 5 µl injection was made to the high-performance liquid chromatography (HPLC) column. HPLC separations were performed on a Phenomenex LUNA C18 (50 × 2 mm, 5 µm) column using a mobile phase of 0.1% formic acid in water (A) and 0.1% formic acid in acetonitrile (B) at a flow rate of 0.6 ml/min and a column temperature of 40 °C. AZD1208-D5 was used as the internal standard. Detection was performed in a Sciex API4000 mass spectrometer, in a positive electrospray ionisation mode, using multiple reaction monitoring detection (AZD1208: 380.0–>248.1; AZD1208-D5: 385.0–>253.1).
smiles,measurement,setting,value
N[C@@H]1CCCN(c2c(/C=C3\SC(=O)NC3=O)cccc2-c2ccccc2)C1 [AZD1208],Percentage of patients with a lower accumulation ratio,240 mg,0%
same,Percentage of patients with a lower accumulation ratio,900 mg,67%
same,Patients with significantly lower exposure at steady state compared with the first dose,"120–900 mg doses, 4/16 patients",25%
same,Dose proportionality of Cmax and AUC0–24,"Cycle 1, Day 1",dose proportional
same,"Tmax, median","Cycle 1, Day 1, 120 mg, n=3",2.42 h
same,"Tmax, median","Cycle 1, Day 1, 240 mg, n=6",2.20 h
same,"Tmax, median","Cycle 1, Day 1, 480 mg, n=6",3.17 h
same,"Tmax, median","Cycle 1, Day 1, 700 mg, n=7",3.05 h
same,"Tmax, median","Cycle 1, Day 1, 900 mg, n=9",3.20 h
same,Gmean plasma concentration of AZD1208 (± SD),"Cycle 1, Day 1, 0.5 h post-dose, 120 mg, n=3","85.8 (40.1, 183.9) ng ml"
same,Gmean plasma concentration of AZD1208 (± SD),"Cycle 1, Day 1, 0.5 h post-dose, 240 mg, n=6","158.3 (14.4, 1740.3) ng ml"
same,Gmean plasma concentration of AZD1208 (± SD),"Cycle 1, Day 1, 0.5 h post-dose, 480 mg, n=6","124.3 (67.6, 228.6) ng ml"
same,Gmean plasma concentration of AZD1208 (± SD),"Cycle 1, Day 1, 0.5 h post-dose, 700 mg, n=7","386.8 (93.3, 1603.6) ng ml"
same,Gmean plasma concentration of AZD1208 (± SD),"Cycle 1, Day 1, 0.5 h post-dose, 900 mg, n=9","251.5 (90.7, 697.2) ng ml"
same,Gmean plasma concentration of AZD1208 (± SD),"Cycle 1, Day 1, 1 h post-dose, 120 mg, n=3","321.3 (187.8, 549.9) ng ml"
same,Gmean plasma concentration of AZD1208 (± SD),"Cycle 1, Day 1, 1 h post-dose, 240 mg, n=6","540.4 (133.8, 2182.4) ng ml"
same,Gmean plasma concentration of AZD1208 (± SD),"Cycle 1, Day 1, 1 h post-dose, 480 mg, n=6","573.0 (248.3, 1322.0) ng ml"
same,Gmean plasma concentration of AZD1208 (± SD),"Cycle 1, Day 1, 1 h post-dose, 700 mg, n=7","883.8 (351.6, 2221.7) ng ml"
same,Gmean plasma concentration of AZD1208 (± SD),"Cycle 1, Day 1, 1 h post-dose, 900 mg, n=9","921.4 (373.1, 2275.6) ng ml"
same,Gmean plasma concentration of AZD1208 (± SD),"Cycle 1, Day 1, 1.5 h post-dose, 120 mg, n=3","774.5 (422.1, 1421.3) ng ml"
same,Gmean plasma concentration of AZD1208 (± SD),"Cycle 1, Day 1, 1.5 h post-dose, 240 mg, n=6","1098.6 (620.9, 1943.7) ng ml"
same,Gmean plasma concentration of AZD1208 (± SD),"Cycle 1, Day 1, 1.5 h post-dose, 480 mg, n=6","1243.2 (485.9, 3181.1) ng ml"
same,Gmean plasma concentration of AZD1208 (± SD),"Cycle 1, Day 1, 1.5 h post-dose, 700 mg, n=7","1849.6 (783.5, 4366.4) ng ml"
same,Gmean plasma concentration of AZD1208 (± SD),"Cycle 1, Day 1, 1.5 h post-dose, 900 mg, n=9","2106.0 (860.5, 5154.2) ng ml"
same,Gmean plasma concentration of AZD1208 (± SD),"Cycle 1, Day 1, 2 h post-dose, 120 mg, n=3","779.9 (508.9, 1195.3) ng ml"
same,Gmean plasma concentration of AZD1208 (± SD),"Cycle 1, Day 1, 2 h post-dose, 240 mg, n=6","1388.6 (1074.3, 1744.9) ng ml"
same,Gmean plasma concentration of AZD1208 (± SD),"Cycle 1, Day 1, 2 h post-dose, 480 mg, n=6","1852.3 (781.9, 4387.6) ng ml"
same,Gmean plasma concentration of AZD1208 (± SD),"Cycle 1, Day 1, 2 h post-dose, 700 mg, n=7","2640.6 (1438.6, 4847.0) ng ml"
same,Gmean plasma concentration of AZD1208 (± SD),"Cycle 1, Day 1, 2 h post-dose, 900 mg, n=9","3553.2 (2352.6, 5366.6) ng ml"
same,Gmean plasma concentration of AZD1208 (± SD),"Cycle 1, Day 1, 3 h post-dose, 120 mg, n=3","715.6 (415.5, 1232.6) ng ml"
same,Gmean plasma concentration of AZD1208 (± SD),"Cycle 1, Day 1, 3 h post-dose, 240 mg, n=6","1299.5 (967.1, 1746.2) ng ml"
same,Gmean plasma concentration of AZD1208 (± SD),"Cycle 1, Day 1, 3 h post-dose, 480 mg, n=6","2865.4 (1884.8, 4356.2) ng ml"
same,Gmean plasma concentration of AZD1208 (± SD),"Cycle 1, Day 1, 3 h post-dose, 700 mg, n=7","3112.3 (1814.6, 5337.9) ng ml"
same,Gmean plasma concentration of AZD1208 (± SD),"Cycle 1, Day 1, 3 h post-dose, 900 mg, n=9","3574.9 (1521.4, 8400.4) ng ml"
same,Gmean plasma concentration of AZD1208 (± SD),"Cycle 1, Day 1, 6 h post-dose, 120 mg, n=3","546.6 (356.7, 837.6) ng ml"
same,Gmean plasma concentration of AZD1208 (± SD),"Cycle 1, Day 1, 6 h post-dose, 240 mg, n=6","1004.2 (822.5, 1226.0) ng ml"
same,Gmean plasma concentration of AZD1208 (± SD),"Cycle 1, Day 1, 6 h post-dose, 480 mg, n=6","2642.0 (1774.2, 3934.4) ng ml"
same,Gmean plasma concentration of AZD1208 (± SD),"Cycle 1, Day 1, 6 h post-dose, 700 mg, n=7","2846.5 (2115.2, 3830.6) ng ml"
same,Gmean plasma concentration of AZD1208 (± SD),"Cycle 1, Day 1, 6 h post-dose, 900 mg, n=9","4252.0 (2883.8, 6269.4) ng ml"
same,Gmean plasma concentration of AZD1208 (± SD),"Cycle 1, Day 1, 8 h post-dose, 120 mg, n=3","481.6 (308.4, 752.3) ng ml"
same,Gmean plasma concentration of AZD1208 (± SD),"Cycle 1, Day 1, 8 h post-dose, 240 mg, n=6","950.3 (825.3, 1094.2) ng ml"
same,Gmean plasma concentration of AZD1208 (± SD),"Cycle 1, Day 1, 8 h post-dose, 480 mg, n=6","2249.0 (1520.2, 3327.1) ng ml"
same,Gmean plasma concentration of AZD1208 (± SD),"Cycle 1, Day 1, 8 h post-dose, 700 mg, n=7","3284.7 (2253.3, 4788.2) ng ml"
same,Gmean plasma concentration of AZD1208 (± SD),"Cycle 1, Day 1, 8 h post-dose, 900 mg, n=9","3882.9 (2438.1, 6184.0) ng ml"
same,Gmean plasma concentration of AZD1208 (± SD),"Cycle 1, Day 1, 24 h post-dose, 120 mg, n=3","199.0 (75.6, 524.0) ng ml"
same,Gmean plasma concentration of AZD1208 (± SD),"Cycle 1, Day 1, 24 h post-dose, 240 mg, n=6","844.5 (598.4, 1191.8) ng ml"
same,Gmean plasma concentration of AZD1208 (± SD),"Cycle 1, Day 1, 24 h post-dose, 480 mg, n=6","2169.6 (1161.6, 4052.3) ng ml"
same,Gmean plasma concentration of AZD1208 (± SD),"Cycle 1, Day 1, 24 h post-dose, 900 mg, n=9","3045.2 (1664.2, 5572.3) ng ml"
same,Gmean plasma concentration of AZD1208 (± SD),"Cycle 1, Day 1, pre-dose, 240 mg, n=6",76.9 (NC) ng ml
same,Gmean plasma concentration of AZD1208 (± SD),"Cycle 1, Day 14, 0.5 h post-dose, 120 mg, n=3","1758.9 (970.3, 3188.5) ng ml"
